In patent publication US20230202997A1, “CHROMANOL, QUINONE OR HYDROQUINONE COMPOUNDS FOR TREATMENT OF SEPSIS” (Sulfateq B.V., priority 2020, published 2023):

Assays:
HUVEC [1] = assay: LPS-induced mitochondrial oxidative stress in HUVEC (MitoSOX); assay type: cell-based, Human; conditions: SUL-138 added one hour prior to LPS
Description: (§1) Human Umbilical Vein Endothelial cells (HUVEC) were obtained from the RuG/UMCG Endothelial Cell Facility. Primary isolates of umbilical cords were mixed and subsequently cultured on HUVEC culture medium, consisted of RPMI 1640 (Lonza, art.nr. BE12-115F) supplemented with 20% heat-inactivated fetal calf serum (ThermoFisher Scientific, art.nr. 10082147), 2 mM 1-glutamine (Life Technologies art.nr. 25030), 5 U/ml heparin (Leo Pharmaceutical Products), 1% Penicillin/Streptomycin (Sigma-Aldrich art.nr. P4333), and 50 μg/ml EC growth factor supplement from (Sigma-Aldrich, art.nr. E2759).
Primary HUVECs were cultured in 75-cm2 tissue culture flasks (Corning, art.nr. 430720U) at 37° C. under 5% CO2/95% air. HUVECs were used for experiments up to passage 8. Experiments were performed in 6-well (Corning art.nr. 3506) or 96-well culture plates (Corning, art.nr. 3596), at 80% confluency. Cells were stimulated with LPS E. coli 0111:B4 (Sigma-Aldrich, art.nr. L2630) in different concentrations. Cells were detached with trypsin (Sigma-Aldrich, art.nr. 25300054). All compounds were dissolved in Hanks Balanced Salt Solution (Lonza, art.nr. 10-527F). […]
Cells and mitochondria were incubated and measured according to manufacturer's protocol in the Synergy H4 micro plate reader (Bio-Tek) at an excitation/emission rate of 548/574 nm.

CLP-induced sepsis = assay: Cecal ligation and puncture (CLP) sepsis model, xyphoid temperature; assay type: in vivo; conditions: CLP mice; SUL-138 5 mg/kg s.c. 2 hours before and 8 hours after surgery; 24 hr after procedure
Description: Male C57/BL6J mice were housed at room temperature at a light-dark cycle of 12:12 hour. Animals were fed ad libitum using standard animal lab chow and they had free access to drinking water at all times.
(§2) To induce sepsis, the standard cecal ligation and puncture (CLP) model was used. Animals were anesthetized by subcutaneous injection of xylazine/ketamine (100/10 mg/kg), followed by administration of buprenorphine (0.1 mg/kg) as analgesic. After confirmation of anesthesia by lack of response to paw pinch and eye reflex, the abdomen was shaved, cleaned, and de-germed using a povidone-iodine solution before a 1-cm midline incision was made. The cecum was ligated with a 6-0 suture at half the distance between distal pole and the base of the cecum and punctured once with a 21-Gauge needle (‘through-and-through’ from mesenteric toward anti-mesenteric direction) which is an accepted model for ‘mid-grade’ sepsis. A small amount of stool (2-3 mm) was then extruded to ensure wound patency. The cecum was repositioned, thereby taking care not to spill fecal material on the wound edges, followed by closure of the abdomen by running sutures to the abdominal musculature and short interrupted sutures to the skin. Next, 1 ml of saline (warmed, 0.9% NaCl s.c.) was administered to compensate for the expected relative volume depletion due to the onset of sepsis.
Mice recovered at 26-28° C. […]

IL-6 mRNA expression = assay: Inhibition of LPS-induced IL-6 mRNA expression in NRK52E; assay type: cell-based, Rat; conditions: 10 μM for 30 min, then LPS 24 hours
Description: (§3) Rat kidney epithelial cells (ATCC #CRL-1571) were maintained in DMEM medium containing 10% fetal bovine serum, and 1% Penicillin-Streptomycin solution (Sigma-Aldrich). NRK52E cells were passaged by trypsinization when the cultures reached a confluency of 70%. For all experiments, NRK52E cells were seeded at 0.6·10^5 cells/cm^2 and allowed to adhere for 24 hours.
(§4) HUVEC and NRK52E cells were pre-incubated with SUL compounds (10 μM) for 30 min and subsequently exposed to LPS for 24 hours under standard culture conditions. Cells were lysed in triZOL reagens (Invitrogen) and total RNA isolated according to manufacturers' instruction. 1 μg total RNA per sample was reverse transcribed using the FirstAid Reverse Transcription Kit (ThermoFisher). Copy-DNA equivalents of 5 ng total RNA were amplified on a ViiA7 Real-time PCR system (ThermoFisher, Waltham, Mass.) using iTaq Universal SYBR Green Supermix (Bio-Rad, Hercules, Calif.) and primers specific for tumor necrosis factor alpha, interleukin 1 beta, interleukin-6 and beta actin as loading control. Amplification was performed for 40 cycles of 95° C. for 30 s, 60° C. for 1 min. Relative mRNA expression was calculated as 2^−(Cq^gene^−Cq^reference^) and normalized to unstimulated control cells (100% inhibition) and vehicle-treated and LPS exposed cells (0% inhibition). The following primers were used: […]

[2] = tested on: CLP-induced kidney dysfunction; assay: CLP sepsis model, serum urea and NGAL as kidney biomarkers; assay type: in vivo; conditions: CLP mice; SUL-138 5 mg/kg s.c. 2 h before and 8 h after surgery; 24 hours
Description: as §2, with “of sepsis. […]” for “of sepsis.”
Furthermore, the amount of NGAL and urea were measured in serum.

HUVEC [3] = assay: HUVEC cell survival after 48 hours LPS (Cyquant); assay type: cell-based, Human; conditions: 48 hours with LPS, SUL-138 pre-incubation
Description: as §1
(§5) Primary HUVECs were cultured in 75-cm2 tissue culture flasks (Corning, art.nr. 430720U) at 37° C. under 5% CO2/95% air. HUVECs were used for experiments up to passage 8. Experiments were performed in 6-well (Corning art.nr. 3506) or 96-well culture plates (Corning, art.nr. 3596), at 80% confluency. Cells were stimulated with LPS E. coli 0111:B4 (Sigma-Aldrich, art.nr. L2630) in different concentrations. Cells were detached with trypsin (Sigma-Aldrich, art.nr. 25300054). All compounds were dissolved in Hanks Balanced Salt Solution (Lonza, art.nr. 10-527F).
(§6) HUVECs were pre-incubated with SUL-138 in an amount of 10 microgram/ml, which was added one hour prior to LPS-stimulation. Such pre-incubation is the standard in in vitro models.

HUVEC [4] = assay: LPS-challenged HUVEC respiration (uncoupled state, CCCP); assay type: cell-based, Human; conditions: 10 ug/ml LPS, SUL-138 added one hour prior to LPS
Description: as §1, §5, §6

TNFα mRNA expression = assay: Inhibition of LPS-induced TNFα mRNA expression in NRK52E; assay type: cell-based, Rat; conditions: 10 μM for 30 min, then LPS 24 hours
Description: as §3, §4

Cc1c(C)c2c(c(C)c1O)CC[C@@](C)(C(=O)N1CCN(CCO)CC1)O2 [SUL-138, (S)-(6-hydroxy-2,5,7,8-tetramethylchroman-2-yl)(4-(2-hydroxyethyl)piperazin-1-yl)methanone]
LPS induced mitochondrial oxidative stress (MitoSOX) (HUVEC [1]): reduces LPS induced mitochondrial oxidative stress | xiphoid temperature (CLP-induced sepsis): restored after 24 hours | inhibition of LPS-induced mRNA expression of IL-6 (IL-6 mRNA expression): 65.3 ± 7.6 % | Serum NGAL level [2]: not different from Sham operated animals | Serum urea level [2]: not different from Sham operated animals | cell survival (Cyquant) (HUVEC [3]): restores cell survival after 48 hours | uncoupled respiration (CCCP) (HUVEC [4]): almost restores the uncoupled respiration | inhibition of LPS-induced mRNA expression of TNFα (TNFα mRNA expression): 52.6 ± 11.6 %
